How the values were obtained:
GRU1.2D-3 = target: T1, GRU1.2D-3 (Bombyx mori, UniProt P49881); experiment: transient transfection luciferase expression assay (GalO-luc reporter) with VHB and GRU1.2D-3; type: cell-based; settings: GRU1.2D-3 point mutant (Cys329 to Gly); 1 micromolar ligand, 48 hrs
T1 construct: BEcR hinge domain and HBD (corresponding to amino acids 272 to 606); expressed in transfected cells
T1 sequence (P49881 272-606): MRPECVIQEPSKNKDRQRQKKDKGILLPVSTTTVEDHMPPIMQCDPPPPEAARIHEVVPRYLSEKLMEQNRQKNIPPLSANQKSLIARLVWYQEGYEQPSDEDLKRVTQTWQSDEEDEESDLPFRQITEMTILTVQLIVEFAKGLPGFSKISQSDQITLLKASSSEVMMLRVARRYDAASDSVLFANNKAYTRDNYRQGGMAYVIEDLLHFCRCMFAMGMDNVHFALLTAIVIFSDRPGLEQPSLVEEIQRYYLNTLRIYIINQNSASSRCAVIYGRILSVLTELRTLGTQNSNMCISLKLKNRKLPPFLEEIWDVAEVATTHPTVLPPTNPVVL
Method: (§1) All construction and cloning was performed by standard methods and as described by Suhr et al., in Proc Natl Acad Sci USA 95(14):7999-8004 (1998) for similar chimeric proteins. For the VHB protein combining the transactivation domain of HSV VP16 protein with the hinge and hormone binding/heterodimerization domain (HBD) of Bombyx mori EcR (BEcR), the 77 amino acid (231 base pair) VP16 domain was amplified by PCR with an in-frame Mlul site at the 3′ end that was ligated with an identical site introduced into the 5′ end of the BEcR hinge domain and HBD (corresponding to amino acids 272 to 606). The final construct, termed VHB, functionally couples the VP16 domain with the BEcR high-affinity hormone responsive domains (see FIG. 3). This DNA was introduced into a number of expression constructs for expression in transduced cells.
(§2) The DNA-binding dimer partner protein fused the 95 amino acid Gal4 DNA binding domain via a BspE I site at the 3′ end to a region of either the RXR or Usp protein with high affinity ligand dependent interaction with BEcR. These variants used amino acids 200-462 of the human RXR alpha protein or amino acids 169-507 of the Drosophila Usp protein (see FIG. 3). These proteins are termed GR (for the RXR variant) or GU (for the Usp variant). […]

GRU variant 1.2 = target: T2, GRU variant 1.2 (Bombyx mori, UniProt P49881); experiment: transient transfection luciferase expression assay (GalO-luc reporter) with RXR-USP chimeric protein GRU variant 1.2; type: cell-based; settings: 1 micromolar ligand, 48 hrs
T2 construct: BEcR hinge domain and HBD (corresponding to amino acids 272 to 606); expressed in transfected cells
T2 sequence (P49881 272-606): T1 sequence (P49881 272-606)
Method: as §1, §2

EcR+Usp = target: T3, EcR+Usp (Drosophila melanogaster, UniProt P34021); settings: cited from earlier work
T3 sequence (P34021 1-878): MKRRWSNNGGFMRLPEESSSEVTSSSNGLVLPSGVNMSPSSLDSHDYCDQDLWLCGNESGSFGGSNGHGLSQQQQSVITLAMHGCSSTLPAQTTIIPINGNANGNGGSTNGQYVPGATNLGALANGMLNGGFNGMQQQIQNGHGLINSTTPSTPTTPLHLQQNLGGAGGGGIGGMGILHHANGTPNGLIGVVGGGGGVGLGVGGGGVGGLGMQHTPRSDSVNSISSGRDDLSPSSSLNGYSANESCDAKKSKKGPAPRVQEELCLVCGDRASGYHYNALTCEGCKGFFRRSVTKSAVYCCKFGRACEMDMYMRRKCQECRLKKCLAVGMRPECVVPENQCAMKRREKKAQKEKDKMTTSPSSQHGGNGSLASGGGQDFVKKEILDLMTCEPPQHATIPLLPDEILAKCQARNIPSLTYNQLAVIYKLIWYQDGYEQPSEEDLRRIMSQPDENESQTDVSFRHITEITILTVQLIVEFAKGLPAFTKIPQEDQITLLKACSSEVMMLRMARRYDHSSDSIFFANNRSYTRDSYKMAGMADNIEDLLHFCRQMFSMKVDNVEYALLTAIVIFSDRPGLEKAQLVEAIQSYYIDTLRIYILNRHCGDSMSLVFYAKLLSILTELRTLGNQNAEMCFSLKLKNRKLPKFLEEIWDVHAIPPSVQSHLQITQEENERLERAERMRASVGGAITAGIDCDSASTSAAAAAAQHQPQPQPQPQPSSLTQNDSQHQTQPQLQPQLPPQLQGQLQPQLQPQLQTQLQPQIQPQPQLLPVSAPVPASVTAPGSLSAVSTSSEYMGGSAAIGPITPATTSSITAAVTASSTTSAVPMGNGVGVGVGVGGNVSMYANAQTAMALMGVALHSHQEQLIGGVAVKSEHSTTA
T3 sequence (P20153 1-508 partner): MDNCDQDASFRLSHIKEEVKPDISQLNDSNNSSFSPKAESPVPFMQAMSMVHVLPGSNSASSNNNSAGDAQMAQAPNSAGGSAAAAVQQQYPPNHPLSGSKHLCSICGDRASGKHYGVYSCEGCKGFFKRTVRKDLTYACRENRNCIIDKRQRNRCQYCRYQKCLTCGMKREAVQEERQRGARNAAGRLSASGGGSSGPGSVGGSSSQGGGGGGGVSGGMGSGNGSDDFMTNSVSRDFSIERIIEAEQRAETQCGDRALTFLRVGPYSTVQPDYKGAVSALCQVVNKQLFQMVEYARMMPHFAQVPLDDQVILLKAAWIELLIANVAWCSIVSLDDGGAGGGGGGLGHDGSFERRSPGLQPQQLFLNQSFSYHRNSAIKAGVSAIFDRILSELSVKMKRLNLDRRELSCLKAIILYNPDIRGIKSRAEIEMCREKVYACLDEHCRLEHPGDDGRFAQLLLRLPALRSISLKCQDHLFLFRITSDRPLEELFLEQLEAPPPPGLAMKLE

EcR+RXR = target: T4, EcR+RXR (Drosophila melanogaster, UniProt P34021); settings: compared with 20-hydroxyecdysone; literature; cited from earlier work
T4 sequence (P34021 1-878): T3 sequence (P34021 1-878)
T4 sequence (P19793 1-462 partner): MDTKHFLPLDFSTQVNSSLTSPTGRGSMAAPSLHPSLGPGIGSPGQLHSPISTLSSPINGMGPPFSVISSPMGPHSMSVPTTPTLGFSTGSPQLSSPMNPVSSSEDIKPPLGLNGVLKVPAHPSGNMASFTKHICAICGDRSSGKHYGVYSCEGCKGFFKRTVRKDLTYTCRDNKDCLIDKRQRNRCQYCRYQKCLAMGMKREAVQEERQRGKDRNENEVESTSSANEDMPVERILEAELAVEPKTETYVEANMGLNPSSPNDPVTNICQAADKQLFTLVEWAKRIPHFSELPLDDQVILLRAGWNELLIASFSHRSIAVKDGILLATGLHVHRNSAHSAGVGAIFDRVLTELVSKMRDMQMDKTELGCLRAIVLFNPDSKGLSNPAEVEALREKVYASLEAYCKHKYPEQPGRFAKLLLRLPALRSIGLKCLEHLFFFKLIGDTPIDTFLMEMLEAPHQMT

[1] = system: mammals and other non-insect species; settings: extensive testing in animal hosts; cited from earlier work

Structure (SMILES): CC(C)(O)CC[C@@H](O)[C@](C)(O)[C@H]1CC[C@@]2(O)C3=CC(=O)[C@@H]4C[C@@H](O)[C@@H](O)C[C@]4(C)[C@H]3CC[C@]12C [20-OH ecdysone, 20-Hydroxy-ecdysone]
- response to ligand (transactivation) (GRU1.2D-3): high level response
- response to ligand (transactivation) (GRU variant 1.2): good response
- stimulation of formation of EcR+Usp heterodimers (EcR+Usp; literature): potently stimulated

Structure (SMILES): CC(C)CC[C@@H](O)[C@](C)(O)[C@H]1CC[C@@]2(O)C3=CC(=O)[C@]4(O)C[C@@H](O)[C@@H](O)C[C@]4(C)[C@H]3[C@H](O)C[C@]12C [muristerone A]
- stimulation of EcR+Usp binding of EcREs over levels without ligand (EcR+Usp; literature (Christopherson, Thomas, Yao)): 3 to 7 fold
- stimulation of formation of EcR+RXR heterodimers (EcR+RXR): more highly stimulated

Structure (SMILES): CCc1ccc(C(=O)NN(C(=O)c2cc(C)cc(C)c2)C(C)(C)C)cc1 [tebufenozide]
- response to ligand (transactivation) (GRU1.2D-3): high level response
- response to ligand (transactivation) (GRU variant 1.2): good response
- toxicity to mammals and other non-insect species [1]: very low toxicity

Reference: patent publication US20040102367A1, “Gene expression system based on chimeric receptors” (priority 2002, published 2004)
